# Laboratory results: ChEMBL document CHEMBL3137386, “DNDi T. cruzi fenarimol series dataset from which preclinical candidate EPL-BS1246 was identified (see also related datasets CHEMBL2448688 and CHEMBL3137440)”
# pIC50: −log10 of the molar value. Values joined by “and” are separate entries in the source; they are usually repeats but may differ in a detail not shown here. Equal entries are not always repeated.
# How the values were obtained:
# [1] = DNDI: Metabolism; assay type: ADME, Microsome; details: human, microsomes; for hepatic extraction ratio: read-out: EH
# [2] = (§1) DNDI: Cytotoxicity against L-6 rat myoblasts from skeletal muscle; assay type: toxicity, cell-based, Muscle tissue, L6; details: rat, L6 rat skeletal muscle myoblasts
# L6 = assay: as §1; assay type: toxicity, cell-based, Muscle tissue; details: l6
# [3] = DNDI: Solubility in 0.01M HCl at pH 2 determined by nephelometry; assay type: physicochemical; details: for solubility kinetic: 0.01 M HCl
# [4] = tested on: Trypanosoma brucei rhodesiense; assay: DNDI: HAT in vitro; assay type: functional, organism-based; details: ATCC 30027
# Cytochrome P450 3A4 [5] = target: T1, Cytochrome P450 3A4 (Homo sapiens, UniProt P08684); assay: (§2) DNDI: CYP Inhibition; assay type: ADME
# Trypanosoma cruzi [6] = assay: (§3) DNDI: Chagas in vitro; assay type: functional, Tulahuen C4 (LacZ)
# Cytochrome P450 3A4 [7] = target: T1, Cytochrome P450 3A4; assay: as §2; assay type: ADME; remark: listed apart in the source
# [8] = DNDI: Lipophilicity (gLogD) at pH 3; assay type: physicochemical; details: buffer
# Trypanosoma cruzi [9] = assay: as §3; assay type: functional, organism-based, Tulahuen C4 (LacZ)
# [10] = DNDI: Lipophilicity (gLogD) at pH 7.4; assay type: physicochemical; details: buffer
# [11] = DNDI: Solubility in phosphate buffer at pH 6.5 determined by nephelometry; assay type: physicochemical
# [12] = Trypanosoma cruzi, Tulahuen C4 (LacZ)
# T1 sequence (P08684 whole entry): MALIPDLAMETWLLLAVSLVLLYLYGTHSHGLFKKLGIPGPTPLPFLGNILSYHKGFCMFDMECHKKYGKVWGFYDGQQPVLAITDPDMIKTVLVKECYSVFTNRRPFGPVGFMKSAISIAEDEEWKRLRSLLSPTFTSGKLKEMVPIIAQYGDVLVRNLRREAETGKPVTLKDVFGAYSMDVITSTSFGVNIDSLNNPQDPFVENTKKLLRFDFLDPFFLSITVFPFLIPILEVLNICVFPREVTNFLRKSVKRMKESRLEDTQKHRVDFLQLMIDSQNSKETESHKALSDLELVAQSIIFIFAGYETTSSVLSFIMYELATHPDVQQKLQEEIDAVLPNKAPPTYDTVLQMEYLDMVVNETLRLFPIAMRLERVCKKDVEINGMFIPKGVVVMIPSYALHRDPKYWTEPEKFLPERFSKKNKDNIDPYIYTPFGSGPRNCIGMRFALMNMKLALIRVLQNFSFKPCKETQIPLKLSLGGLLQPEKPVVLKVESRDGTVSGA
Compound,EH [1],half-life [1] [min],microsomal CLint [1] [µL/min/mg],t (1 / 2) [1],hepatic extraction ratio [1],solubility kinetic [3] [µg/mL],Kinetic ([3]; buffer) [µg/mL],pIC50 [4],pIC50 (Cytochrome P450 3A4 [5]),IC90 (Trypanosoma cruzi [6]),pIC50 (Cytochrome P450 3A4 [7]),chromatographic logD [8],pIC50 (Trypanosoma cruzi [9]),chromatographic logD [10],IC90 (Trypanosoma cruzi [6]; [12]) [µM],pIC50 (Trypanosoma cruzi [9]; [12]),solubility kinetic [11] [µg/mL],Clint [1],pIC50 [2],pIC50 (L6)
N#Cc1ccc(C(C(=O)N2CCN(c3ccc(C(F)(F)F)cn3)CC2)c2cccnc2)cc1 (stereo not drawn),0.56 and 0.54,60,29,83 min and 77 min,0.62,> 100,,< 5.00,,0.0565 µM and 0.0465 µM and > 0.1 µM,< 4.70,3.1,7.64 and 7.92 and < 7.00,,,,,21 µL/min/mg and 23 µL/min/mg,< 4.00,4.10
O=S(=O)(Cc1ccccc1)Nc1cnccc1N1CCN(c2ccc(C(F)(F)F)cc2)CC1,,,,,,,,< 5.00,,,,,,,0.029,7.74,,,< 4.00,
CC(C)(C)OC(=O)N1CCN(C(=O)C(c2ccc(C#N)cc2)c2cccnc2)CC1 (stereo not drawn),,,,,,,,< 5.00,,,,,,,> 0.091,7.18,,,< 4.00,
CS(=O)(=O)c1ccc(N2CCN(C(=O)C(c3ccc(Cl)cc3)c3cncnc3)CC2)cc1 (stereo not drawn),0.69 and 0.66,50,,25 min and 43 min,0.79,25,,< 5.00,,,< 4.70,2.6,7.20 and < 7.00,2.6,> 0.1,7.11,6.3,34 µL/min/mg and 69 µL/min/mg and 40 µL/min/mg,< 4.00,
O=C(C(c1ccc(Cl)cc1)c1cncnc1)N1CCN(c2ccc(C(F)(F)F)nc2)CC1 (stereo not drawn),,31,56,,0.76,12.5,,< 5.00,,,< 4.70,3.4,,3.3,> 0.1,6.60,12.5,,< 4.00,
O=C(C(c1ccc(Cl)cc1)c1cncnc1)N1CCN(c2ccc(C(F)(F)F)cn2)CC1 (stereo not drawn),,23,76,,0.81,50,,< 5.00,,,4.74,3.9,,3.9,> 0.1,6.79,6.3,,4.28,

# Second part, led by results:
EH [1],half-life [1] [min],microsomal CLint [1] [µL/min/mg],t (1 / 2) [1],hepatic extraction ratio [1],solubility kinetic [3] [µg/mL],Kinetic ([3]; buffer) [µg/mL],pIC50 [4],pIC50 (Cytochrome P450 3A4 [5]),IC90 (Trypanosoma cruzi [6]),pIC50 (Cytochrome P450 3A4 [7]),chromatographic logD [8],pIC50 (Trypanosoma cruzi [9]),chromatographic logD [10],IC90 (Trypanosoma cruzi [6]; [12]) [µM],pIC50 (Trypanosoma cruzi [9]; [12]),solubility kinetic [11] [µg/mL],Compound,Clint [1],pIC50 [2],pIC50 (L6)
0.61 and 0.63,41,42,63 min and 57 min,0.7,> 100,25,< 5.00,5.18,> 0.1 µM and 0.401 µM,< 4.70,3.8,,,,,,O=C(C(c1ccc(Cl)cc1)c1cccnc1)N1CCN(c2ccc(C(F)(F)F)cn2)CC1 (stereo not drawn),28 µL/min/mg and 30 µL/min/mg,4.24,4.23
0.75 and 0.68,,,21 min and 33 min and 46 min,0.82,25,,< 5.00,5.15,0.214 µM and > 0.1 µM,4.72,2.3,,2.9,,,,CS(=O)(=O)c1ccc(N2CCN(C(=O)C(c3ccc(Cl)cc3)c3cccnc3)CC2)cc1 (stereo not drawn),84 µL/min/mg and 53 µL/min/mg and 38 µL/min/mg,< 4.00,4.21
,30,59,,0.77,3.1,,< 5.00,,,4.70,4.2,,4.2,> 0.1,6.93,3.1,O=C(C(c1ccc(Cl)cc1)c1cncnc1)N1CCN(c2ccc(C(F)(F)F)cc2)CC1 (stereo not drawn),,4.29,
,,,,,,,< 5.00,,,,,,,> 0.1,7.66,,O=C(c1ccc(Cl)cc1)N1CCN(C(=O)C(c2ccc(Cl)cc2)c2cccnc2)CC1 (stereo not drawn),,< 4.00,
,4,460,,0.96,,,< 5.00,,,4.82,,,,> 0.1,< 7.00,,O=C(C(c1ccc(Cl)cc1)c1cccnc1)N1CCN(Cc2ccccc2C(F)(F)F)CC1 (stereo not drawn),,4.27,
